The results in this text go back to patent US20250186433A1, “ACSS2 INHIBITORS AND METHODS OF USE THEREOF” (EpiVario, Inc., priority 2017, published 2025).

SMILES strings stand for the structures. “Also recorded” adds a separate entry of the source.

Data set [1] has as its target T1, ACSS2 (Mus musculus, UniProt Q9QXG4).
T1 construct: from tissue; host or cells: whole animal, C57BL/6J mice; plasma palmitate read out
Description: PK-PD study: inhibition of 13C incorporation into fatty-acid (palmitate) in vivo. The following applies: C57BL/6J mice, 50 mg/kg IP, 13C-ETOH PO at 1 h, plasma at 3 h, read-out: inhibition of 13C-Acetate incorporation into fatty-acids (palmitate). On the procedure:
Overnight fasted Female C57BL/6J mice (3n/group) were dosed at time=0 h with the indicated compound at 50 mg/kg IP (vehicle: 20% Solutol, 80% 0.2M Phosphate buffer pH 7.0). At time 1 h, 13C-ETOH (2.25 gr/kg 13C-ETOH dissolved in saline to a total volume of 10 ml/kg) were administrated by PO. At time 3 h plasma samples were taken for Fatty-acid analysis by Mass-spectrometry. The incorporation of ^13C into palmitate was done by Mass-spectrometry after saponification of the samples and the percent incorporation of ^13C was calculated.

Another data set concerns HCT116. The experiment in a line: In-vivo model that does not utilize acetate (HCT116). As to conditions: daily oral dosing.
The test system of data set [2] is MDA-MB-468 breast cancer cells xenograft. Description: In-vivo efficacy study in MDA-MB-468 breast cancer cells xenograft. As to conditions: 100 mg/kg orally once daily; female NMRI nude mice. On the procedure:
An in-vivo efficacy study was carried out by Charles-River Laboratories at the Freiburg, Germany site.
Tumor fragments from Breast cancer cell line MDA-MB-468 passaged as subcutaneous xenograft were subcutaneously implanted into female NMRI nude mice (Crl:NMRI-Foxnlnu). The animals were randomized into groups (n=10) when tumors volume reached 50 to 250 mm3. […] Body weights and tumor volume [mm3] by caliper were measured twice weekly.

The next data set deals with T2, ACSF2 (Homo sapiens, UniProt Q96CM8).
T2 construct: purchased Cusabio, China
T2 sequence (Q96CM8 42-615): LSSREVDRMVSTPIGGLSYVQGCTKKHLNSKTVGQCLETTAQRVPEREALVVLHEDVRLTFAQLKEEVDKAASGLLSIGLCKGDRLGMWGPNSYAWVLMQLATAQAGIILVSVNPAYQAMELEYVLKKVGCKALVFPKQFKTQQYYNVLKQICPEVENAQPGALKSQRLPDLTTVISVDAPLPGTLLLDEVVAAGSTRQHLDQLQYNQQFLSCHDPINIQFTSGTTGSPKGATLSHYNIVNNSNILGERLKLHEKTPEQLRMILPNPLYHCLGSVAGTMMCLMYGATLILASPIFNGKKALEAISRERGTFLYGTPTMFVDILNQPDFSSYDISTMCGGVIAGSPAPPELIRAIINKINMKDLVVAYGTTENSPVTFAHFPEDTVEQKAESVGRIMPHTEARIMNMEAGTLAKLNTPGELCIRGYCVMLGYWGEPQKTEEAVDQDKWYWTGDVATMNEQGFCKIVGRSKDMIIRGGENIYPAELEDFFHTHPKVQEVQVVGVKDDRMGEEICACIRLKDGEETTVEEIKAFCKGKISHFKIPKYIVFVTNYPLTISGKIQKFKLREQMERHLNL
Description: Acyl-CoA synthetases selectivity panel: ACSF2. It counts as biochemical. As to conditions: human recombinant protein, substrate octanoate, AMP readout by HPLC; read-out: HPLC based activity assays IC50 (UM) ACSF2. The source says: (§1) The biochemical assays for testing the selectivity of the compounds according to this invention, were done using human recombinant proteins (Cusabio, China). The readout of the assays was AMP levels, the […] of the reactions, by HPLC method. The acyl substrates (Sigma-Aldrich) of the assays were as followed: ACSS1/ACSS2—Acetate, AACS-Acetoacetyl, ACSF2—Octanoate and ACSL5—Palmitate. The protein in this panel include ACSS1, the closest homolog of ACSS2, in addition to representative short/medium/long chain acyl-CoA syntatases.

For the next data set, the target named is T3, ACSS1 (Homo sapiens, UniProt Q9NUB1).
T3 construct: purchased Cusabio, China
T3 sequence (Q9NUB1 38-689): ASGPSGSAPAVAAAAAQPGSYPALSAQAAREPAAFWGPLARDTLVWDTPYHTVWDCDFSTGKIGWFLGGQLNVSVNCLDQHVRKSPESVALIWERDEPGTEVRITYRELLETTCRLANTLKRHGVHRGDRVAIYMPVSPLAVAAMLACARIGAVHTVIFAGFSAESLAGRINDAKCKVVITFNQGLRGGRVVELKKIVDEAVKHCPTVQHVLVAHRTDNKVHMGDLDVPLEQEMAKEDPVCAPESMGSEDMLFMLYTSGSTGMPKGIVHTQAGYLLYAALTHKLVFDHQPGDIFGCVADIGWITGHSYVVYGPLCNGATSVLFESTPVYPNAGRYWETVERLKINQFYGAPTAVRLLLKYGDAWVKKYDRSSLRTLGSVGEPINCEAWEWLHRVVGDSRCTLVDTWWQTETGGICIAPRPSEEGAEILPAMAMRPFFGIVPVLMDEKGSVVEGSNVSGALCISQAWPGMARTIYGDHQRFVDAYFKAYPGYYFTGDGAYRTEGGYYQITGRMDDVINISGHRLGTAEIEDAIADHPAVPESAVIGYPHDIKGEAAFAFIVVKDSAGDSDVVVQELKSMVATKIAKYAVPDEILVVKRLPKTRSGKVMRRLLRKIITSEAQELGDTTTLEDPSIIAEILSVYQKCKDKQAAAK
Description: Acyl-CoA synthetases selectivity panel: ACSS1. Format: biochemical. As to conditions: human recombinant protein, substrate acetate, AMP readout by HPLC; read-out: HPLC based activity assays IC50 (UM) ACSS1.
Description: as §1

For data set [3], the target named is T4, ACSS2 (Homo sapiens, UniProt Q9NR19). Description: biochemical.
T4 sequence (Q9NR19 whole entry): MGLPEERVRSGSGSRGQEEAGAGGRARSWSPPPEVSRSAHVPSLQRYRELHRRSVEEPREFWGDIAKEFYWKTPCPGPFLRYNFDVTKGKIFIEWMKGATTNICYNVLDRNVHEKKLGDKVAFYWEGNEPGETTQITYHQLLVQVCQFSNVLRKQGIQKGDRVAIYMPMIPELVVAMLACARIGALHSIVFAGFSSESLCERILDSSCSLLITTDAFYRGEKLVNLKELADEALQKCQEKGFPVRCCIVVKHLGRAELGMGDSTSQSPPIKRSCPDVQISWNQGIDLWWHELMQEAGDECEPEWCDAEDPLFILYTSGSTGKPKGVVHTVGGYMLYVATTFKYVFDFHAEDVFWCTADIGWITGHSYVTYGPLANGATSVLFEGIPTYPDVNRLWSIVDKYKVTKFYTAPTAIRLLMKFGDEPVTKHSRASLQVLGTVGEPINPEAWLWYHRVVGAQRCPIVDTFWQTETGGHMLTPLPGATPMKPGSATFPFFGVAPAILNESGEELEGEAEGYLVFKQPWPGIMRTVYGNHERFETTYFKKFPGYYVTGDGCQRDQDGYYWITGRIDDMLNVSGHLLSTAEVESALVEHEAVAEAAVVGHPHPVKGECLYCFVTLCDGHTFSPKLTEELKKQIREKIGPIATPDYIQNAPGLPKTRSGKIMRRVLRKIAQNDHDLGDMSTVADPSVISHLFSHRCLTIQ
Data set [4] deals with T4, ACSS2. The experiment in a line: cell-based.
Description: Testing the inhibitory effect of compounds on the cellular activity of ACSS2 was done by tracing the incorporation of ^13C from ^13C-acetate into fatty-acids in MDA-MB-468 cells under hypoxic conditions of 1% O2. The assay was done for 5 hours in DMEM with 5.5 mM glucose, 1 mM sodium Pyruvate, 0.65 mM Glutamine, 3.5 ug/ml Biotin, 1% dialyzed serum, 0.5 mM 13 C-acetate and with different concentrations of the inhibitors. At the end of the incubation, the cells were washed with cold PBS, harvested into glass tubes and undergo saponification. The level of ^13C incorporation into Palmitate was done by LC-MS analysis and the level of inhibition was calculated with PRISM software.
Data set [5] addresses T4, ACSS2. The experiment in a line: Acyl-CoA synthetases selectivity panel: ACSS2. As to conditions: human recombinant protein, substrate acetate, AMP readout by HPLC; read-out: HPLC based activity assays IC50 (UM) ACSS2. It counts as biochemical. The arrangement: purchased Cusabio, China.
Description: as §1

Data set [6] is described as follows: Pharmacokinetic profile in mice (oral and iv). Format: in vivo. The following applies: mouse, plasma.
A further data set has as its target T5, ACSL5 (Homo sapiens, UniProt Q9ULC5).
T5 construct: purchased Cusabio, China
T5 sequence (Q9ULC5 1-683): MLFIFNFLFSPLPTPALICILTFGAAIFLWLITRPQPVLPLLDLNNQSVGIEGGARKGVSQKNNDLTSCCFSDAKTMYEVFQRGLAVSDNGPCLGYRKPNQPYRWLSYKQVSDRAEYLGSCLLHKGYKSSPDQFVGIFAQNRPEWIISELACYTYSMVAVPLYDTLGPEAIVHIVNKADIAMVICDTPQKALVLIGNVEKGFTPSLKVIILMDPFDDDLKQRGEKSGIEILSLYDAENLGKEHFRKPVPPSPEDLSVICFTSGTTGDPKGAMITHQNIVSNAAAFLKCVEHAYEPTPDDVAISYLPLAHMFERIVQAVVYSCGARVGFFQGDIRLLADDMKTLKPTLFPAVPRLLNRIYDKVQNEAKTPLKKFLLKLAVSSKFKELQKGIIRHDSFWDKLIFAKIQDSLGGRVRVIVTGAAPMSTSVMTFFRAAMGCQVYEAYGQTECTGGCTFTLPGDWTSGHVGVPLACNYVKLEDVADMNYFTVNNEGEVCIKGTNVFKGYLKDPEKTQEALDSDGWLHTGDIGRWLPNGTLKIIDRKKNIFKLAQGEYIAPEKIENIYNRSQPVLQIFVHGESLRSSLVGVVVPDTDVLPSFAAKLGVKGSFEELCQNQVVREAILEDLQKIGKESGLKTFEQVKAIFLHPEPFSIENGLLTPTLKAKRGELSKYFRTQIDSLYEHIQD
Description: Acyl-CoA synthetases selectivity panel: ACSL5. Format: biochemical. As to conditions: human recombinant protein, substrate palmitate, AMP readout by HPLC; read-out: HPLC based activity assays IC50 (UM) ACSL5.
Description: as §1

The next data set concerns the target T6, AACS (Homo sapiens, UniProt Q86V21).
T6 construct: purchased Cusabio, China
T6 sequence (Q86V21 1-672): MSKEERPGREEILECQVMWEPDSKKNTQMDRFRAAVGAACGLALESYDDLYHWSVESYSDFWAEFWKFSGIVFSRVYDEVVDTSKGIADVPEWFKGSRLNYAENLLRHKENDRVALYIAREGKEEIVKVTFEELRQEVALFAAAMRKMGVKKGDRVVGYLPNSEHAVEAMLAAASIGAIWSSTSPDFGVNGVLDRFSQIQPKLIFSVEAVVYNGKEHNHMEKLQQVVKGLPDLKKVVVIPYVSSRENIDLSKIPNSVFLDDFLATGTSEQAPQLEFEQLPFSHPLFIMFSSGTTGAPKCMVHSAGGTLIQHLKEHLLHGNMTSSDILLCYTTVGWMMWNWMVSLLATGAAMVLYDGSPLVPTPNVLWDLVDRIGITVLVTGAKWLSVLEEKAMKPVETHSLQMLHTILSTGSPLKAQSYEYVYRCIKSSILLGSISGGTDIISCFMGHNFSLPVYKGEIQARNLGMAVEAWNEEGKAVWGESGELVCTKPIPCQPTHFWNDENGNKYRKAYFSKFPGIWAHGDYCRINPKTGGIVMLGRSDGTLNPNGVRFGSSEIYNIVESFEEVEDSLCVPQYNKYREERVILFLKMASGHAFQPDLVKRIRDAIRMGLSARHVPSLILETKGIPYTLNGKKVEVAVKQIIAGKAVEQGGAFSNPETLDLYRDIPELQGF
Description: Acyl-CoA synthetases selectivity panel: AACS. Format: biochemical. The following applies: human recombinant protein, substrate acetoacetyl, AMP readout by HPLC; read-out: HPLC based activity assays IC50 (UM) AACS.
Description: as §1

T1 sequence (Q9QXG4 whole entry): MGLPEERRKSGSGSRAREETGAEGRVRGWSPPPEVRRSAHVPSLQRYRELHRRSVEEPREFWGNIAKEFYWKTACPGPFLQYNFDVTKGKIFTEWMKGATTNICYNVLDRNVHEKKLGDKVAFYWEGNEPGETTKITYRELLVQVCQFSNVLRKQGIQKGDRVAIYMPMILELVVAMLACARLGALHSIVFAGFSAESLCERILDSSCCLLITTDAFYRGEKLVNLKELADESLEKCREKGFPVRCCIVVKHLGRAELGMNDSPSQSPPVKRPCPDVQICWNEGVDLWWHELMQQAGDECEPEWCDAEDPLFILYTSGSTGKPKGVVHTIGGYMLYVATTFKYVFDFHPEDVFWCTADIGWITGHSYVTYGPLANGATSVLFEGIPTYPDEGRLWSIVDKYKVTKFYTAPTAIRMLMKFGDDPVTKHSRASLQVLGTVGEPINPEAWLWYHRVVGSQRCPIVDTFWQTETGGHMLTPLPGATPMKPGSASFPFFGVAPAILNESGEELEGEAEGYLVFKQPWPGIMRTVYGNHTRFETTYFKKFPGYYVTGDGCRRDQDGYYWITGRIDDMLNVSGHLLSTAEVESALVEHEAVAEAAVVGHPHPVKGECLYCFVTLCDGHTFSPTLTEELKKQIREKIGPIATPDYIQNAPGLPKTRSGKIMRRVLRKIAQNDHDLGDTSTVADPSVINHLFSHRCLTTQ

With `CC1=NN(c2ccc(OC(F)F)c(-c3cnccn3)c2)C(=O)C1C(=O)Nc1cccc(C(C)(F)F)c1` (stereo not shown) [compound 328, N-[3-(1,1-difluoroethyl)phenyl]-1-[4-(difluoromethoxy)-3-pyrazin-2-yl-phenyl]-3-methyl-5-oxo-4H-pyrazole-4-carboxamide], on ACSS2 [1], the inhibition at 50 mg/kg was found to be 87%.
With `COc1ccc(N2N=C(C)C(C(=O)Nc3cccc(C(C)(F)F)c3)C2=O)cn1` (stereo not shown) [compound 242, N-(3-(1,1-difluoroethyl)phenyl)-1-(6-methoxypyridin-3-yl)-3-methyl-5-oxo-4,5-dihydro-1H-pyrazole-4-carboxamide], the inhibition at 50 mg/kg on ACSS2 [1] worked out at 84%.
For `CC1=NN(c2ccc(OC(F)F)cc2)C(=O)C1C(=O)Nc1cccc(C(C)(F)F)c1` (stereo not shown) [compound 298, N-(3-(1,1-difluoroethyl)phenyl)-1-(4-(difluoromethoxy)phenyl)-3-methyl-5-oxo-4,5-dihydro-1H-pyrazole-4-carboxamide], the “efficacy in a model that does not utilize acetate (HCT116)” value with HCT116 is given as “no efficacy”. The “tumor growth in MDA-MB-468 xenograft model” value (shortened to “tumor growth”) in [2] was “significant tumor growth delay”.
`CC1=NN(c2ccc(OC(F)(F)F)cc2)C(=O)C1C(=O)Nc1cc(C(C)(F)F)cs1` (stereo not shown) [compound 296, N-(4-(1,1-difluoroethyl)thiophen-2-yl)-3-methyl-5-oxo-1-(4-(trifluoromethoxy)phenyl)-4,5-dihydro-1H-pyrazole-4-carboxamide]: the “tumor growth” value in data set [2] is given as “inhibits tumor growth”.
`COc1ccc(N2N=C(C)C(C(=O)Nc3cccc(C(C)(F)F)c3)C2=O)cc1` (stereo not shown) [compound 265, N-(3-(1,1-difluoroethyl)phenyl)-1-(4-methoxyphenyl)-3-methyl-5-oxo-4,5-dihydro-1H-pyrazole-4-carboxamide]: the IC50 on ACSF2 was 152000 nM; at ACSS1 it was 1000 to 10000 nM; at ACSS2 [3], 0.01 to 6 nM; against ACSS2 [4], 0.5 to 50 nM; at ACSS2 [5], under 1 nM; at ACSL5, over 100000 nM. Besides, at AACS, the IC50 stood at 171000 nM. For the same compound, in the data set with HCT116, the “efficacy in a model that does not utilize acetate (HCT116)” value was “no efficacy”. This compound returned a bioavailability in data set [6] (oral 5 mg/kg, iv 1 mg/kg) of 74%. Besides, in data set [6] (oral 5 mg/kg, iv 1 mg/kg), the clearance was 0.59 mL/min/kg. Besides, the half-life in data set [6] (po, single 5 mg/kg dose, read-out: t½ (converted)) was 6.51 h. Further, the “tumor growth” value in [2] was “significant tumor growth delay; also recorded: inhibits tumor growth”.
With `CC1=NN(c2ccc(OC(F)F)cc2)C(=O)C1C(=O)N[C@H]1CC[C@@H](O)[C@@H](O)C1` (stereo partly drawn) [compound 307, 1-(4-(difluoromethoxy)phenyl)-N-((1S,3S,4R)-3,4-dihydroxycyclohexyl)-3-methyl-5-oxo-4,5-dihydro-1H-pyrazole-4-carboxamide], the values for the IC50 at ACSS2 [3] and against ACSS2 [4] were 0.01 to 6 nM and over 100 nM, respectively.
